The results in this text go back to patent US10322108B2, “N-benzoate group substituted benzopyrroline-2-one derivative and use thereof” (BEIJING HANMI PHARMACEUTICAL CO., LTD., priority 2015, dated 2019).

pIC50: −log10 of the molar value. Where only a bound is given, the exact number is not on record here.

Assay [1] relates to Th17 cells. Nature of the assay: Differentiation inhibition experiments on Th17 cells (IL-17A content in supernatant by ELISA). The assay is classed as cell-based, C57 mouse. To be noted: 1 μM compound; differentiation of mouse naïve CD4+ T cells to Th17, IL-17A ELISA; read-out: Inhibition Rate (1 μM). Here is the method: 5 μg/mL mouse CD3 antibody (purchased from BD) was coated on a 96-well plate (37° C., 2-6 hours) and stored for future use. C57 mouse lymph gland naïve CD4 positive T cells were separated using CD4+ T cell isolation kit II (purchased from MACS), and were inoculated to the coated 96-well plate at 5×10^5 cells/well/100 μL. The test sample was gradient diluted with RMPI-1640 culture medium (Gibco, 22440), and was made to be 4 times of the final concentration (starting from 1 μM, 10 times dilution, setting 6 drug concentrations). The diluted test sample was added at 50 μL/well to the test well inoculated with cells. To each of the positive and negative control wells was added 50 μL RMPI-1640 culture medium. To each of the test wells and the positive control wells was further added 50 μL mixed solution of activators (20 ug/mL mouse CD28 antibody (purchased from BD); 40 ug/mL mouse IL-4 antibody (purchased from BD); 40 ug/mL mouse IFNγ antibody (purchased from BD); 4 ng/mL mouse TGF-β1 (purchased from R&D); 200 ng/mL mouse IL-6 (purchased from R&D); 20 ng/mL mouse IL-23 (purchased from R&D)) having a 4-fold final concentration; to the negative control well was added 50 μL RMPI-1640 culture medium. The loaded 96-well plate was placed in an incubator at 37° C., 5% CO2 and was cultured for 66 hours, followed by adding to each well 50 uL mixed solution of PMA (purchased from Sigma, working concentration: 50 ng/mL) and Ionomycin (purchased from Sigma, working concentration: 1 ug/mL), and culturing at 37° C. for another 6 hours. After the culture was completed, a cell culture supernatant was taken, and the IL-17A content in the supernatant was determined using mouse IL-17A ELISA kit (purchased from Dakewe), and the inhibition rate and the IC50 value were calculated. The specific operation followed the kit specification (see below):
(1) Determining the number of required strips according to the number of the test wells (blank and standard); taking out the Washing buffer (50×) and the ready-to-use solution from the kit 20 min in advance to balance to room temperature.
(2) Loading samples: adding diluted Cytokine standard to the standard well at 100 μL/well, adding the sample to the sample well at 100 μL/well, setting a blank well, in which Dilution buffer R (1×) was used instead of the sample and the standard.
(3) Adding testing antibody: adding diluted Biotinylated antibody at 50 μL/well; covering with a sealing film after mixing uniformly, and incubating at 37° C. for 90 min.
(4) Washing the plate: deducting the liquid in the well, adding 1× washing buffer at 300 μL/well; maintain for 1 min, then discarding the liquid in the well; repeating 4 times, each time deducting to dryness on filter pater.
(5) Adding enzyme: adding diluted Streptavidin-HRP at 100 μL/well; covering with a sealing film, and incubating at 37° C. for 30 min.
(6) Washing the plate: repeating […].
(7) Color development: adding TMB at 100 μL/well, incubating at 37° C. in a dark place for 5-30 min, and determining to terminate the reaction according to the depth of the color in the well (dark blue). Normally, a good effect can be achieved by color development for 10-20 min.
(8) Terminating the reaction: rapidly adding a stop solution at 100 μL/well to terminate the reaction.
Reading the plate: 10 min after termination, reading the value using a measurement wavelength of 450 nm.
In general terms: ELISA stands for enzyme-linked immunosorbent assay.

Assay [2] has as its target RORγ-LBD (Homo sapiens (Human), UniProt P51449). Nature of the assay: LanthaScreen TR-FRET screening of RORγ-LBD / co-activator (Fluorescein-D22) interaction. To be noted: read-out: IC50 Values; TR-FRET, 2 nM RORγ-LBD, 150 nM Fluorescein-D22 co-activator.

Chain of RORγ-LBD (P51449 269-508): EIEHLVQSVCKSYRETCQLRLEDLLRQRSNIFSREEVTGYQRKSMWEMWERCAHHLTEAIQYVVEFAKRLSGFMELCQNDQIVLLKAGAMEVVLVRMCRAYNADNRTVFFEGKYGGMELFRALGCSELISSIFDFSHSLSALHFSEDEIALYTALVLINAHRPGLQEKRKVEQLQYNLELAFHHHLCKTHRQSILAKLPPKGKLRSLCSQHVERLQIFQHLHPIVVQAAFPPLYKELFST

A word on the inhibition: it is how much of the control response was suppressed. What is called pIC50 is the negative decadic logarithm of the IC50, by convention in mol/L. On to `Cc1cccc2c1/C(=C/c1c(Cl)cccc1C1CC1)C(=O)N2c1ccc(C(=O)O)c(O)c1` [Example 1, (trans)-4-(3-(2-chloro-6-cyclopropyl-benzylidene)-4-methylindolin-2-on-1-yl)-2-hydroxy benzoic acid], for which the inhibition at 1 µM in assay [1] is more than 50%. Moreover, the negative logarithm of the IC50 (pIC50) in assay [2] is more than 7.00.

As to `Cc1cccc2c1/C(=C/c1c(Cl)cccc1C1CC1)C(=O)N2c1ccc(C(=O)O)cc1` [Example 2A, (trans)-4-(3-(2-chloro-6-cyclopropyl-benzylidene)-4-methylindolin-2-on-1-yl)-benzoic acid], the inhibition at 1 µM in assay [1] is more than 50%. Moreover, the negative-log IC50 (pIC50) in assay [2] is more than 7.00.

Consider `COc1cccc(Cl)c1/C=C1\C(=O)N(c2ccc(C(=O)O)c(O)c2)c2cccc(C)c21` [Example 3, (trans)-4-(3-(2-chloro-6-methoxy-benzylidene)-4-methylindolin-2-on-1-yl)-2-hydroxybenzoic acid], for which the inhibition at 1 µM in assay [1] is more than 50%. In assay [2], the negative-log IC50 (pIC50) was more than 7.00.

In the case of `Cc1cccc2c1/C(=C/c1c(Cl)cccc1Cl)C(=O)N2c1ccc(C(=O)O)c(O)c1` [Example 4, (trans)-4-(3-(2,6-dichloro-benzylidene)-4-methylindolin-2-on-1-yl)-2-hydroxybenzoic acid], the inhibition at 1 µM in assay [1] was more than 50%. For the same molecule, the pIC50 in assay [2] was more than 7.00.

`Cc1cccc(Cl)c1/C=C1\C(=O)N(c2ccc(C(=O)O)c(O)c2)c2cccc(C)c21` [Example 10, (trans)-4-(3-(2-chloro-6-methyl-benzylidene)-4-methylindolin-2-on-1-yl)-2-hydroxybenzoic acid]: in assay [1], the inhibition at 1 µM was more than 50%. Further, the pIC50 in assay [2] was more than 7.00.

On to `O=C(O)c1ccc(N2C(=O)/C(=C\c3c(Cl)cccc3Cl)c3c(F)cccc32)cc1` [Example 15A, (trans)-4-(3-(2,6-dichloro-benzylidene)-4-fluoro-indolin-2-on-1-yl)-benzoic acid], for which, in assay [1], the inhibition at 1 µM was more than 50%. Moreover, in assay [2], the pIC50 is more than 7.00.

For `O=C(O)c1ccc(N2C(=O)/C(=C/c3c(Cl)cccc3Cl)c3c(F)cccc32)cc1` [Example 15B, (cis)-4-(3-(2,6-dichloro-benzylidene)-4-fluoro-indolin-2-on-1-yl)-benzoic acid], the inhibition at 1 µM in assay [1] was less than 50%. For the same molecule, the pIC50 in assay [2] was more than 7.00.

`O=C(O)c1ccc(N2C(=O)/C(=C/c3c(Cl)cccc3C3CC3)c3c(F)cccc32)cc1` [Example 16B, (cis)-4-(3-(2-chloro-6-cyclopropyl-benzylidene)-4-fluoro-indolin-2-on-1-yl)-benzoic acid]: the inhibition at 1 µM in assay [1] is more than 50%. Moreover, the pIC50 in assay [2] was more than 7.00.
